From ChEMBL document CHEMBL4699592, “Nature-Inspired (di)Azine-Bridged Bisindole Alkaloids with Potent Antibacterial In Vitro and In Vivo Efficacy against Methicillin-Resistant Staphylococcus aureus” (J Med Chem, 2020)
≈ marks a conversion by molar mass, not a printed value. Calls of active or inactive are those of the source. No cut-off for these calls is given here.

Assays:
[1] = Selectivity index, ratio of IC50 for cytotoxicity against human THP-1 cells to MIC90 for antibacterial activity against […] Staphylococcus aureus ATCC 700699; format: toxicity, cell-based; conditions: read-out: Selectivity Index
[2] = test system: MRC5; test: Cytotoxicity against human MRC5 cells assessed as reduction in cell viability at >=12.5 uM measured after 48 hrs by resazurin dye based fluorescence assay; conditions: mrc5, 48 h
[3] = test system: THP-1; test: Cytotoxicity against human THP-1 cells assessed as reduction in cell viability at >=12.5 uM measured after 48 hrs by resazurin dye based fluorescence assay; conditions: thp-1, 48 h
[4] = test system: Enterococcus faecium; test: Antibacterial activity against vancomycin-resistant Enterococcus faecium ATCC 35667 at 0.78 to 100 uM after 24 hrs by broth microdilution method; format: functional, organism-based; conditions: dose microM 0.78-100, time 24.0 hrs
[5] = test system: Enterococcus faecium; test: Antibacterial activity against vancomycin-resistant Enterococcus faecium ATCC 700221 at 0.78 to 100 uM after 24 hrs by broth microdilution method; format: functional, organism-based; conditions: dose microM 0.78-100, time 24.0 hrs
[6] = test system: Enterococcus faecalis; test: Antibacterial activity against Enterococcus faecalis ATCC 51299 at 0.78 to 100 uM after 24 hrs by broth microdilution method; format: functional, organism-based; conditions: dose microM 0.78-100, time 24.0 hrs
[7] = test system: Enterococcus faecalis; test: Antibacterial activity against Enterococcus faecalis ATCC 29212 at 0.78 to 100 uM after 24 hrs by broth microdilution method; format: functional, organism-based; conditions: dose microM 0.78-100, time 24.0 hrs
[8] = test system: Acinetobacter baumannii; test: Antibacterial activity against Acinetobacter baumannii ATCC BAA-1605 at 0.78 to 100 uM after 24 hrs by broth microdilution method; format: functional, organism-based; conditions: dose microM 0.78-100, time 24.0 hrs
[9] = test system: Mycobacterium tuberculosis; test: Antibacterial activity against Mycobacterium tuberculosis H37Rv at 0.78 to 100 uM after 5 days by resazurin dye based fluorescence assay; format: functional, organism-based; conditions: dose microM 0.78-100, time 5.0 day
[10] = test system: Staphylococcus aureus; test: Antibacterial activity against methicillin susceptible Staphylococcus aureus ATCC 25923 at 0.78 to 100 uM after 24 hrs by broth microdilution method; format: functional, organism-based; conditions: dose microM 0.78-100, time 24.0 hrs
[11] = test system: Staphylococcus aureus; test: Antibacterial activity against […] Staphylococcus aureus ATCC 700699 after 24 hrs by broth microdilution method; format: functional
[12] = Solubility of compound in pH 7.7 PBS buffer; format: physicochemical
[13] = Selectivity index, ratio of IC50 for cytotoxicity against human MRC5 cells to MIC90 for antibacterial activity against […] Staphylococcus aureus ATCC 700699; format: toxicity, cell-based; conditions: read-out: Selectivity Index
[14] = test system: HEK293; test: Cytotoxicity against HEK293 cells assessed as reduction in cell viability at >12.5 uM measured after 48 hrs by resazurin dye based fluorescence assay; conditions: human, hek293, 48 h
[15] = test system: HepG2; test: Cytotoxicity against human HepG2 cells assessed as reduction in cell viability at >12.5 uM measured after 48 hrs by resazurin dye based fluorescence assay; conditions: hepg2, 48 h
[16] = Cytotoxicity against human CLS-54 cells assessed as reduction in cell viability at >12.5 uM measured after 48 hrs by resazurin dye based fluorescence assay; conditions: cls-54, 48 h
[17] = test system: Erythrocyte; test: Hemolytic activity against sheep erythrocytes up to 100 uM measured after 1 hr; format: ADME, cell-based, Ovis aries
[18] = test system: Pseudomonas aeruginosa; test: Antibacterial activity against Pseudomonas aeruginosa ATCC 27853 measured after 24 hrs by broth microdilution method; format: functional
[19] = test system: Acinetobacter baumannii; test: Antibacterial activity against Acinetobacter baumannii ATCC BAA-1605 after 24 hrs by broth microdilution method; format: functional
[20] = test system: Escherichia coli; test: Antimicrobial activity against Escherichia coli ATCC BAA 2469 after 24 hrs by broth microdilution assay; format: functional
[21] = test system: Klebsiella pneumoniae; test: Synergistic antibacterial activity against Klebsiella pneumoniae ATCC 700603 assessed as FIC after 24 hrs in presence of colistin by checkerboard assay relative to test compound MIC; format: functional
[22] = test system: Pseudomonas aeruginosa; test: Synergistic antibacterial activity against Pseudomonas aeruginosa ATCC 27853 assessed as FIC after 24 hrs in presence of colistin by checkerboard assay relative to test compound MIC; format: functional
[23] = test system: Acinetobacter baumannii; test: Synergistic antibacterial activity against Acinetobacter baumannii ATCC BAA-1605 assessed as FIC after 24 hrs in presence of colistin by checkerboard assay relative to test compound MIC; format: functional
[24] = test system: Escherichia coli; test: Synergistic antimicrobial activity against Escherichia coli ATCC BAA 2469 assessed as FIC after 24 hrs in presence of colistin by checkerboard assay relative to test compound MIC; format: functional
[25] = test system: Klebsiella pneumoniae; test: Antibacterial activity against Klebsiella pneumoniae ATCC 700603 after 24 hrs by broth microdilution method; format: functional
[26] = test system: Klebsiella pneumoniae; test: Synergistic antibacterial activity against Klebsiella pneumoniae ATCC 700603 assessed as FIC after 24 hrs in presence of colistin by checkerboard assay relative to colistin; format: functional
[27] = test system: Pseudomonas aeruginosa; test: Synergistic antibacterial activity against Pseudomonas aeruginosa ATCC 27853 assessed as FIC after 24 hrs in presence of colistin by checkerboard assay relative to colistin; format: functional
[28] = test system: Acinetobacter baumannii; test: Synergistic antibacterial activity against Acinetobacter baumannii ATCC BAA-1605 assessed as FIC after 24 hrs in presence of colistin by checkerboard assay relative to colistin; format: functional
[29] = test system: Escherichia coli; test: Synergistic antimicrobial activity against Escherichia coli ATCC BAA 2469 assessed as FIC after 24 hrs in presence of colistin by checkerboard assay relative to colistin; format: functional
[30] = test system: Klebsiella pneumoniae; test: Synergistic antibacterial activity against Klebsiella pneumoniae ATCC 700603 assessed as FICI after 24 hrs in presence of colistin by checkerboard assay; format: functional
[31] = test system: Pseudomonas aeruginosa; test: Synergistic antibacterial activity against Pseudomonas aeruginosa ATCC 27853 assessed as FICI after 24 hrs in presence of colistin by checkerboard assay; format: functional
[32] = test system: Acinetobacter baumannii; test: Synergistic antibacterial activity against Acinetobacter baumannii ATCC BAA-1605 assessed as FICI after 24 hrs in presence of colistin by checkerboard assay; format: functional
[33] = test system: Escherichia coli; test: Synergistic antimicrobial activity against Escherichia coli ATCC BAA 2469 assessed as FICI after 24 hrs in presence of colistin by checkerboard assay; format: functional
[34] = test system: Escherichia coli; test: Antimicrobial activity against Escherichia coli ATCC BAA 2469 after 24 hrs in presence of colistin by checkerboard assay relative to test compound MIC; format: functional
[35] = test system: Klebsiella pneumoniae; test: Antibacterial activity against Klebsiella pneumoniae ATCC 700603 after 24 hrs in presence of colistin by checkerboard assay relative to test compound MIC; format: functional
[36] = test system: Staphylococcus aureus; test: Bactericidal activity against […] Staphylococcus aureus ATCC 700699 assessed as reduction in bacterial viability at 5 fold MIC incubated for 6 hrs by time kill assay relative to control; format: functional
[37] = test system: Staphylococcus aureus; test: Bactericidal activity against […] Staphylococcus aureus ATCC 700699 assessed as colony forming units at 5 fold MIC measured after 24 hrs by time kill assay; format: functional
[38] = test system: Staphylococcus aureus; test: Antibacterial activity against vancomycin-sensitive Staphylococcus aureus T144 infected in Balb/c mouse assessed as increase in wound healing at 5 mg/kg applied topically measured daily for 12 days by microscopic analysis; format: functional, organism-based; conditions: time 12.0 day
[39] = test system: Staphylococcus aureus; test: Antibacterial activity against vancomycin-sensitive Staphylococcus aureus T144 infected in Balb/c mouse assessed as reduction in bacterial burden at 5 mg/kg applied topically measured after 12 days by colony counting method; format: functional, organism-based; conditions: time 12.0 day
[40] = test system: Staphylococcus aureus; test: Antibacterial activity against vancomycin-sensitive Staphylococcus aureus T144 infected in Balb/c mouse peritonitis-sepsis model assessed as increase in survival at 5 mg/kg, ip measured for 48 hrs; format: functional, organism-based
[41] = Solubility of compound in pH 7.7 DMSO:PBS solution; format: physicochemical; conditions: buffer
[42] = test system: Staphylococcus aureus; test: Antibacterial activity against methicillin-resistant Staphylococcus aureus USA300 LAC at 0.15 to 25 uM incubated for 24 hrs under low glucose medium by resazurin dye based fluorescence assay; format: functional, organism-based; conditions: dose microM 0.15-25, time 24.0 hrs
[43] = test system: Staphylococcus aureus; test: Antibacterial activity against methicillin-resistant Staphylococcus aureus USA300 LAC at 0.15 to 25 uM incubated for 24 hrs under low pyruvate containing medium by resazurin dye based fluorescence assay; format: functional, organism-based; conditions: dose microM 0.15-25, time 24.0 hrs
[44] = test system: Staphylococcus aureus; test: Antibacterial activity against methicillin-resistant pyruvate kinase deficient Staphylococcus aureus USA300 LAC at 0.15 to 25 uM incubated for 24 hrs under low pyruvate containing medium by resazurin dye based fluorescence assay; format: functional, organism-based; conditions: dose microM 0.15-25, time 24.0 hrs
[45] = test system: Staphylococcus aureus; test: Inhibition of Staphylococcus aureus ATCC 700699 N-terminal His6-tagged pyruvate kinase expressed in Escherichia coli NiCo21(DE3) at 12.5 uM using phosphoenolpyruvate as substrate measured for 5 mins by LDH-coupled assay
[46] = target: Pyruvate kinase PKM (Oryctolagus cuniculus) (UniProt P11974); test: Inhibition of rabbit muscle pyruvate kinase up to 12.5 uM using phosphoenolpyruvate as substrate measured for 5 mins by LDH-coupled assay; conditions: dose microM <=12.5, time 5.0 min
[47] = test system: Staphylococcus aureus; test: Antibacterial activity against […] Staphylococcus aureus ATCC 700699 assessed as ratio of MIC before and after 38 passages by broth microdilution method; format: functional

Sequence of Pyruvate kinase PKM (Oryctolagus cuniculus) (P11974 whole entry): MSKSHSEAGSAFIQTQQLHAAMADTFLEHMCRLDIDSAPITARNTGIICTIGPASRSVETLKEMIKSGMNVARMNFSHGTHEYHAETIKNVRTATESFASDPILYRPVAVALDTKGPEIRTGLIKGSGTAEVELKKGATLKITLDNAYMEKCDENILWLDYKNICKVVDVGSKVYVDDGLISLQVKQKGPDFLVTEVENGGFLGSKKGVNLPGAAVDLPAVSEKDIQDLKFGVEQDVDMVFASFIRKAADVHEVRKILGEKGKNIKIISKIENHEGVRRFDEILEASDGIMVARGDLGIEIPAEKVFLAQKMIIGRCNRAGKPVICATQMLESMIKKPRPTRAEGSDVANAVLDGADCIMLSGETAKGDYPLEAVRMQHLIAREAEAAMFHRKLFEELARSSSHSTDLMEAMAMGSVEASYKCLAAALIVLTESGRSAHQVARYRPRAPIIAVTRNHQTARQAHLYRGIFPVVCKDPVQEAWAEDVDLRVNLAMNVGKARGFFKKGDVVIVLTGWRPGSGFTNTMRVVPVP

Question: Which selectivity ratio [1] does the source give for `Clc1ccc2[nH]cc(-c3cnc(-c4c[nH]c5ccc(Cl)cc45)nc3)c2c1` here?
Answer: 32

Question: What about the Activity [2] of the same molecule?
Answer: Toxic

Question: What about the Activity [3] of the same molecule?
Answer: Toxic

Question: And the Activity [4]?
Answer: Active

Question: And the Activity [5]?
Answer: Active

Question: What about the Activity [6] of the same molecule?
Answer: Active

Question: And the Activity [7]?
Answer: Active

Question: And the Activity [8]?
Answer: Active

Question: And the Activity [9]?
Answer: Active

Question: And the Activity [10]?
Answer: Active

Question: And the MIC90 [11]?
Answer: 0.39 µM (≈ 0.148 µg/mL)

Question: And the solubility [12]?
Answer: Insoluble

Question: What about the selectivity ratio [13] of the same molecule?
Answer: 32

Question: And the Activity [14]?
Answer: Toxic

Question: And the Activity [15]?
Answer: Toxic

Question: What about the Activity [16] of the same molecule?
Answer: Toxic

Question: And the Activity [17]?
Answer: Non-Toxic

Question: What about the MIC [18] of the same molecule?
Answer: > 100 µM

Question: And the MIC [19]?
Answer: > 100 µM

Question: What about the MIC [20] of the same molecule?
Answer: > 100 µM

Question: And the FIC [21]?
Answer: <=0.125

Question: And the FIC [22]?
Answer: <=0.0625

Question: What about the FIC [23] of the same molecule?
Answer: <=0.0625

Question: What about the FIC [24] of the same molecule?
Answer: <=0.0313

Question: What about the MIC [25] of the same molecule?
Answer: > 100 µM

Question: And the FIC [26]?
Answer: 0.125

Question: And the FIC [27]?
Answer: 1

Question: What about the FIC [28] of the same molecule?
Answer: 0.25

Question: And the FIC [29]?
Answer: 0.064

Question: And the “fractional inhibitory concentration index (FICI)” value [30]?
Answer: <=0.25

Question: What about the “fractional inhibitory concentration index (FICI)” value [31] of the same molecule?
Answer: <=1.0625

Question: What about the “fractional inhibitory concentration index (FICI)” value [32] of the same molecule?
Answer: <=0.3125

Question: What about the “fractional inhibitory concentration index (FICI)” value [33] of the same molecule?
Answer: <=0.0953

Question: What about the Ratio [34] of the same molecule?
Answer: 32

Question: What about the Ratio [35] of the same molecule?
Answer: 8

Question: And the “fold change (FC)” value [36]?
Answer: 10000

Question: What about the Activity [37] of the same molecule?
Answer: <10 CFU/ml

Question: And the Activity [38]?
Answer: Active

Question: What about the Activity [39] of the same molecule?
Answer: Active

Question: What about the Activity [40] of the same molecule?
Answer: Active

Question: What about the solubility [41] of the same molecule?
Answer: Insoluble

Question: And the Activity [42]?
Answer: Active

Question: And the Activity [43]?
Answer: Active

Question: And the Activity [44]?
Answer: Active

Question: What about the inhibition [45] of the same molecule?
Answer: inactive

Question: What about the inhibition [46] of the same molecule?
Answer: inactive

Question: And the Ratio [47]?
Answer: 2
